The target in the assay is T1, CCR2 (Homo sapiens, UniProt P41597).
T1 construct: THP-1 human monocytic leukemic cell line, which expresses endogenous CCR2; endogenous in cells; host or cells: human peripheral blood mononuclear cells, human monocytes or THP-1 cells
T1 sequence (P41597 1-360 isoform P41597-2): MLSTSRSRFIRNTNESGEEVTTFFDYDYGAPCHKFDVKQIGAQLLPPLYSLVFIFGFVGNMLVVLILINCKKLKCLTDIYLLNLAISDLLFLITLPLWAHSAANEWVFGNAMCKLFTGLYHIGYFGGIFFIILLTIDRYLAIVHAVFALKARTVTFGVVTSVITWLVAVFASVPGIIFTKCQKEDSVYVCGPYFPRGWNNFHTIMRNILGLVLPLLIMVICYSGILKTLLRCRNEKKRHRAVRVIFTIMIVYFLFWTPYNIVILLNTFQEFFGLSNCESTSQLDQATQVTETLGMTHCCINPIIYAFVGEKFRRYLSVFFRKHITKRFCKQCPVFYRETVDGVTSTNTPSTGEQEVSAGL
The assay can be described thus: CCR2 binding: antagonism of 125I-MCP-1 binding (human PBMC / THP-1 whole cell). As to conditions: n = 1 unless otherwise noted. On the procedure:
Antagonism of MCP-1 Binding to Human PBMC
Millipore filter plates (#MABVN1250) are treated with 100 μl of binding buffer (0.5% bovine serum albumin, 20 mM HEPES buffer and 5 mM magnesium chloride in RPMI 1640 media) for thirty minutes at room temperature. To measure binding, 50 μl of binding buffer, with or without a known concentration compound, is combined with 50 μl of ^125-I labeled human MCP-1 (to give a final concentration of 150 pM radioligand) and 50 μl of binding buffer containing 5×10^5 cells. Cells used for such binding assays can include human peripheral blood mononuclear cells isolated by Ficoll-Hypaque gradient centrifugation, human monocytes (Weiner et al., J. Immunol. Methods. 1980, 36, 89), or the THP-1 cell line which expresses the endogenous receptor. The mixture of compound, cells and radioligand are incubated at room temperature for thirty minutes. Plates are placed onto a vacuum manifold, vacuum applied, and the plates washed three times with binding buffer containing 0.5M NaCl. The plastic skirt is removed from the plate, the plate allowed to air dry, the wells punched out and counted. The percent inhibition of binding is calculated using the total counts obtained in the absence of any competing compound and the background binding determined by addition of 100 nM MCP-1 in place of the test compound.
THP-1 Monocytic Cell Binding: Whole Cell-based Assay
The human CCR2 binding assay was also established with the THP-1 human monocytic leukemic cell line, which expresses endogenous CCR2, using ^125I-human MCP-1 as the tracer ligand. Radioligand competition binding assays were used for assessment of binding affinity of test compounds to the CCR2 receptor. For radioligand competition studies, 100 μl containing 2.5×10^5 THP-1 cells/well (in assay buffer containing 50 mM HEPES, pH7.4, 5 mM MgCl2, 1 mM CaCl2 and 0.5% BSA) were added to 96-well assay plates containing the test compounds in 3-fold serial dilution, with final concentrations ranging from 5 μM to 100 pM. Subsequently, 50 μl ^125I-MCP-1 radioligand at a final concentration of 0.2 nM in assay buffer were added to the reaction. After a 90 minute incubation period at room temperature, the binding reaction was terminated by harvesting on GF/B filter plates (PerkinElmer Cat. No. 6005177) followed by washing with ice-cold wash buffer (50 mM HEPES, pH 7.4, 0.1% BSA, 0.5 M NaCl) to remove unbound ligand. After washing, the plate was dried for 45 minutes at 60° C. followed by addition of 40 μl MicroScint 20 scintillation fluid, sealed and analyzed by the Packard TopCount reader. Non-specific binding was determined in the presence of 10 μM (a molar excess of 5000 fold) of an in-house CCR2 small molecule antagonist (CCR2 IC50=2 nM). Specific binding of ^125I-MCP-1 was calculated as the difference between total and non-specific binding. The competition data was plotted as a percentage inhibition of radioligand specific bound in the absence of test compound (percent of total signal). After correcting for non-specific binding, IC50 values were determined. The IC50 is defined as the concentration of test compound required to reduce ^125I-MCP-1 specific binding by 50% and was calculated using the four parameter logistic equation to fit the normalized data.
On to `C[C@H]1CCC(C(=O)O)[C@](C)(c2cccc(C(F)(F)F)c2)C1` (mixture of isomers) [Example 2, (2RS,4SR)-2,4-dimethyl-2-(3-(trifluoromethyl)phenyl)cyclohexanecarboxylic acid], for which affinity was put at a Ki of 5800 nM. In the case of `C[C@@H]1CC=C(C(=O)NS(C)(=O)=O)[C@@](C)(c2ccc(Cl)c(Cl)c2)C1` (racemic) [Example 3-01, (4RS,6RS)-6-(3,4-dichlorophenyl)-4,6-dimethyl-N-(methylsulfonyl)cyclohex-1-enecarboxamide], the Ki (as a rule, the equilibrium dissociation constant of an inhibitor or competing ligand from its target) is 5400 nM.

In turn, `C[C@@H]1CC=C(C(=O)NS(=O)(=O)C(F)(F)F)[C@@](C)(c2ccc(Cl)c(Cl)c2)C1` (racemic) [Example 3-02, (4RS,6RS)-6-(3,4-dichlorophenyl)-4,6-dimethyl-N-(trifluoromethylsulfonyl)-cyclohex-1-enecarboxamide] came in with a Ki of 6600 nM. With `C[C@@H]1CC=C(C(=O)NS(=O)(=O)c2ccccc2)[C@@](C)(c2ccc(Cl)c(Cl)c2)C1` (racemic) [Example 3-03, (4RS,6RS)-6-(3,4-dichlorophenyl)-4,6-dimethyl-N-(phenylsulfonyl)cyclohex-1-enecarboxamide] the figure was 150 nM; with `CC1=C(C(=O)O)[C@@](O)(c2ccc(Cl)c(Cl)c2)C[C@H](C)C1` (racemic) [Example 5, (4RS,6SR)-6-(3,4-dichlorophenyl)-6-hydroxy-2,4,-dimethylcyclohex-1-enecarboxylic acid], 1000 nM. With `CC1=C(C(=O)O)[C@@](C)(c2ccc(Cl)c(Cl)c2)C[C@H](C)C1` (racemic) [Example 6, (4RS,6RS)-6-(3,4-dichlorophenyl)-2,4,6-trimethylcyclohex-1-enecarboxylic acid] the figure was 580 nM. For the compound `C[C@]1(c2ccc(Cl)c(C(F)(F)F)c2)C[C@H](CO)CC=C1C(=O)O` (racemic) [Example 7, (4RS,6RS)-6-(4-chloro-3-(trifluoromethyl)-phenyl)-4-(hydroxymethyl)-6-methylcyclohex-1-enecarboxylic acid], the inhibition constant (Ki) worked out at 210 nM.

Consider `CC(C)(C)OC[C@@H]1CC=C(C(=O)O)[C@@](C)(c2ccc(Cl)c(C(F)(F)F)c2)C1` (racemic) [Example 10, (4RS,6RS)-4-(tert-butoxymethyl)-6-(4-chloro-3-(trifluoromethyl)phenyl)-6-methylcyclohex-1-enecarboxylic acid], for which the Ki came to 6200 nM. This Ki is about 30-fold higher than that of the compound before. With `CC(=O)NC[C@@H]1CC=C(C(=O)O)[C@@](C)(c2ccc(Cl)c(C(F)(F)F)c2)C1` (racemic) [Example 11, (4RS,6RS)-4-(acetamidomethyl)-6-(4-chloro-3-(trifluoromethyl)phenyl)-6-methylcyclohex-1-enecarboxylic acid] the figure was 5500 nM; with `C[C@]1(c2ccc(Cl)c(C(F)(F)F)c2)C[C@H](OCc2ccccc2)CC=C1C(=O)O` (racemic) [Example 12, (4RS,6RS)-4-(benzyloxy)-6-(4-chloro-3-(trifluoromethyl)phenyl)-6-methylcyclohex-1-enecarboxylic acid], 2500 nM. `COc1ccccc1C1(C)CCCC=C1C(=O)O` (stereo not shown) [Example 1-07, 6-(2-methoxyphenyl)-6-methyl methylcyclohex-1-enecarboxylic acid] had a Ki of 10000 nM.

The compound `C[C@H]1CC=C(C(=O)O)[C@](C)(c2ccc(Cl)c(C(F)(F)F)c2)C1` [Example 4-01a, (4S,6S)-6-(4-chloro-3-(trifluoromethyl)-phenyl)-4,6-dimethylcyclohex-1-enecarboxylic acid] returned an inhibitory constant (Ki) of 9 nM. With `C[C@@H]1CC=C(C(=O)O)[C@@](C)(c2ccc(Cl)c(C(F)(F)F)c2)C1` [Example 4-01b, (4R,6R)-6-(4-chloro-3-(trifluoromethyl)phenyl)-4,6-dimethylcyclohex-1-enecarboxylic acid] the figure was 4500 nM. The figure for `C[C@H]1CC=C(C(=O)O)[C@](C)(c2ccc(Cl)c(Cl)c2)C1` [Example 4-02a, (45,65)-6-(3,4-dichlorophenyl)-4,6-dimethylcyclohex-1-enecarboxylic acid] is 36 nM; for `C[C@@H]1CC=C(C(=O)O)[C@@](C)(c2ccc(Cl)c(Cl)c2)C1` [Example 4-02b, (4R,6R)-6-(3,4-dichlorophenyl)-4,6-dimethylcyclohex-1-enecarboxylic acid] it is 5800 nM; for “(4RS,6RS)-6-(4-chloro-3-(trifluoromethyl)-phenyl)-4-(hydroxymethyl)-6-methylcyclohex-1-enecarboxylic acid [Example 9]” it is 310 nM.

The record behind these values is patent publication US8507559B2, “Cyclohexenyl modulators of chemokine receptor activity” (Bristol-Myers Squibb Company, priority 2008, dated 2013).
